Assay results from patent US6001880A, “Alkylenediamine derivative, anti-ulcer drug, and antibacterial drug” (Shiseido Co., Ltd., priority 1997, dated 1999).

Experiments:
mice = system: mice; design: species or system mouse (male Slc:ICR); conditions: mouse, in vivo
Protocol: AT: Single Dose Toxicity Pretest
Male Slc:ICR mice (5-week-old) were used. Each group has 3 to 5 mice and each mouse was fasted, but allowed free access to water, for 4 to 5 hours from 9 a.m. in the test day. Then, 2,000 mg/10 ml/kg of the sample compound dissolved or suspended in an aqueous solution of 0.5% sodium carboxymethyl cellulose was orally administered thereto. To a control, only the vehicle was administered. […] The body weight was measured before and after the fasting as well as at the same time everyday. The dead animals were immediately subjected to autopsy and their organs were observed by naked eyes. Also, the living animals were sacrificed with ether or carbon dioxide one week after the administration and then their organs were observed by naked eyes.
The toxicity at the single dose of 2,000 mg/kg of the sample compound was expressed as being classified into 5 levels.
5: mortality rate is 0%; no toxicity is found at all both in behavior and organs.
4: Mortality rate is 0%; while no toxicity is found in organs, slight toxicity is observed in behavior or body weight increase.
3: While there is a dead animal (though not all the animals are dead), no toxicity is found in organs.
2: Regardless of whether there is a dead animal or not, toxicity is found in organs.
1: All the animals are dead.

[1] = system: stress ulcer formation in rats; experiment: WIS: Restraint and Water Immersion Stress-Induced Ulcer Inhibition Test; type: in vivo, rat (male Crj:SD or Slc:SD); conditions: 100 mg/kg oral, 10 minutes before 7 h restraint and water immersion (21° C.)
Protocol: WIS: Restraint and Water Immersion Stress-Induced Ulcer Inhibition Test
The degree of inhibition of the stress ulcer formation is tested.
Male Crj:SD or Slc:SD rats (6 to 7-week-old) were fasted overnight, but allowed free access to water. Each group has 5 to 8 of these rats. The sample compound was dissolved or suspended in an aqueous solution of 0.3% sodium carboxymethylcellulose or 0.05% Tween 80 and then was orally administered (100 mg/10 ml/kg). To a control group, the vehicle was administered. 10 minutes later, the rats were placed in a stress cage and immersed to the level of xipfoid process in a water bath (21° C.) for 7 hours. At the end of the stress, the rats were sacrificed by inhalation of ether or carbon dioxide. Then, the stomach of each was removed, inflated by injecting 10 ml of 5% formalin neutral buffer solution, and immersed in 1% formalin neutral buffer solution for 30 minutes or more to be fixed. The stomach was incised along the greater curvature and then the length of each erosion in the glandular portion was determined under dissecting microscope. The sum of the length of erosions per stomach was defined as ulcer index (UI).
The effect obtained when 100 mg/kg of the sample compound had been administered was expressed as ulcer formation inhibitory rate (%) as follows:
ulcer formation inhibitory rate (%)=(1-(UI in sample group/UI in control

[2] = system: Helicobacter pyroli (HP NCTC 11637); experiment: AHP: Antibacterial Activity Test Against Helicobacter pyroli (agar dilution); type: cell-based, Helicobacter pyroli NCTC 11637; conditions: MIC 100 μg/ml or more; colony number vs control plate, 250 mM solution of sample compound
Protocol: AHP: Antibacterial Activity Test Against Helicobacter pyroli The minimum inhibitory concentration (MIC) against Helicobacter pyroli (microacrophilic gram-negative bacterium which is supposed to deeply involve in pathogenesis, relapse, and recrudescence of ulcer, referred to as "HP" in the following) is measured so as to find out compounds which have antibacterial activity against Helicobacter pyroli. MICs were determined by the agar dilution method. The stock culture (-80° C.) of HP NCTC 11637 was thawed and cultured on tripticase soy agar supplemented with 5% sheep blood at 37° C. in an atmosphere of 5% O2, 10% CO2, and 85% N2. Grown colonies were transferred to the same plate and precultured for 3 days under the same condition. […] An appropriate amount of the colony grown on the plate by preculturing was suspended in Mueller Hinton broth till turbidness was recognizable by naked eyes, thereby yielding a bacterial suspension concentrate containing about 10^7 cfu/ml. […] 10 μl of the bacterial suspension for inoculation (about 10^3 cfu) was dropped by dispenser onto an MIC plate for inoculation and cultured for 7 days under the same condition as that of preculture. Thereafter, it was judged whether there had been bacteria growth or not. […] As the result of the comparison of these plates, when the number of the colony on the plate containing the sample compound was less than 90% with respect to that on the control plate, it was represented by "+". Contrary to this, when there was 90% or more, it was represented by "-".

[3] = system: isolated gastric fundic gland; experiment: CAP: Acid Secretion Inhibition Test In Vitro ([14C]-aminopyrine uptake); type: cell-based, rabbit (male Japanese White); conditions: Oryctolagus cuniculus; final concentration 10^-5 M; histamine 10^-5 M stimulation; read-out: CAP: acid secretion inhibitory rate
Protocol: CAP: Acid Secretion Inhibition Test In Vitro
The acid secretion inhibitory activity in a cell level is studied. It can also be used for studying the mechanism of the effect.
First, an isolated gastric fundic gland sample was prepared. Namely, a male Japanese White rabbit (2.5 to 3 kg) was anesthetized to death with Nembutal™ and then the abdomen was incised. Immediately thereafter, the stomach was removed and, after its pyloric and cardiac antrum were severed, incised along its greater curvature into two sheets. The gastric contents adhering to the mucosal surface was washed out with ice-cooled PBS (-) and then carefully washed therein. The gastric wall was spread on a cork board with its mucosal surface facing up and the feed and mucus thereon were completely removed with sterile gauze. The mucosa was separated therefrom by a spatula and then collected in ice-cooled PBS (-). After being washed twice with PBS (-), the mucosa was minced into 2-3 mm^3 pieces by scissors. These pieces were further washed twice with a nutrient solution. The nutrient solution comprises 132.4 mM of NaCl, 5.4 mM of KCl, 5 mM of Na2 HPO4. 12H2 O, 1 mM of NaH2 PO4.2H2 O, 1.2 mM of MgSO4, 1 mM of CaCl2, 25 mM of HEPES, 2 mg/ml of glucose, and 1 mg/ml of BSA.
Into 70 ml of the nutrient solution containing 1 mg/ml of collagenase, minced mucosal pieces were dispersed and intensely stirred in a conical flask with a stirrer at 37° C. for 40 to 60 minutes. During this period, 100% O2 was sprayed on the nutrient solution surface and the pH was appropriately measured such that it was immediately adjusted to pH 7.4, when the value was therebelow, with a base. The nutrient solution was added to the reaction solution so as to attain the total amount of about 200 ml. After being filtered through a mesh, the suspension was divisionally introduced into 50 ml centrifuge tubes and left for 15 minutes such that gastric fundic gland was deposited. The supernatant was repeatedly removed by an aspirator, dispersed in the nutrient solution, and then left such that the gastric fundic gland was washed three times. At this time, without using a pipette, the suspension was alternately introduced into two centrifuge tubes so as to effect dispersion. The number of cells was counted under microscope and adjusted to 1.6×10^6 cells/ml.
Then, [^14 C]-aminopyrine uptake test was performed. After an Eppendorf tube was weighed, 10 μl (final concentration: 10^-5 M) of histamine dissolved in the above-mentioned nutrient solution, 10 μl (final concentration: […]) of the test compound dissolved in DMSO, and 10 μl (final concentration: 0.05 μCi/ml) of [^14 C]-aminopyrine diluted with the nutrient solution were introduced therein and then 970 μl of the isolated gastric fundic gland suspension prepared above was added thereto. Subsequently, this mixture was shaken at 37° C. for 40 minutes at 125 cycles/minute. After being centrifuged for 30 seconds, 200 μl of its supernatant was collected into a mini-vial, while the rest was removed by an aspirator. The gland pellet was completely dried as the tube with its lid being opened was kept for one night in a drying oven at 80° C. and then the lid was closed and the weight was determined at room temperature. Then 100 μl of 1N KOH was added thereto and the tube with its lid being closed was treated at 60° C. for 1 to 2 hours so as to dissolve the pellet. Then, the contents thereof were transferred to a mini-vial. Into the mini-vial containing the supernatant or gland pellet, 4 ml of Atomlite™ was added and then the radioactivity was measured by a liquid scintillation counter. Here, after the radioactivity of the gland pellet was corrected by using a sample in which 20 mM of NaSCN was added so as to cancel the hydrogen ion concentration gradient, the integration ratio of aminopyrine specifically trapped by the gland pellet was calculated. This experiment was performed in duplicate.
Here, its principle will be briefly explained. […]

[4] = MTT: Cell Damaging and Protecting Effect Test; type: cell-based, rabbit (male Japanese White); conditions: rabbit, gastric corpus mucosa cells, final concentration 10^-4 M, smaller value is better, read-out: MTT: cell damaging rate
Excerpt: MTT: Cell Damaging and Protecting Effect Test
It is confirmed that there is no toxicity in cell level. Those having a toxicity in cell level are inappropriate as an anti-ulcer drug.
A male Japanese White rabbit (2.5 to 3 kg) was anesthetized to death by Nembutal™ and, immediately thereafter, its stomach was removed. The greater curvature of the stomach was incised so as to remove the stomach contents therefrom. After the mucosal surface was washed with HBSS (Hanks' Balanced Salt Solution), the stomach in ice-cooled HBSS was transferred to a laboratory. Then, after the pyloric antrum was removed, the gastric corpus mucosa was separated by a spatula and then minced into 2 to 3 mm^3 pieces in BME (Basal Medium Eagle). Thereafter, these pieces were shaken at 120 to 130 cycles/minute for 15 minutes at 37° C. in BME 60 ml containing 280 U/ml of dispase and 30 to 50 U/ml of collagenase. Here, the concentration of collagenase was appropriately changed for each lot in view of the state of cells. The pieces were washed twice with EBSS (Earle's Balanced Salt Solution) containing 1 mM of EDTA and then shaken in MEM (Minimum Essential Medium) containing 1 mM of EDTA at 37° C. for 5 minutes. Subsequently, they were shaken in the dispase and collagenase having the same concentrations as those mentioned above for 15 minutes so as to remove the supernatant and then further shaken at 37° C. for 50 to 60 minutes at 120 to 130 cycles/minute. Then, after being washed twice with HBSS, Ham F12 containing 2% of Ultrocer G™ was used to attain the concentration of 1×10^6 cells/ml. Thus formed suspension was dispensed in each well of a 96-well plate by 200 μl. The plate was incubated in the atmosphere composed of 5% CO2 and 95% air at 37° C. for three days so as to attain a confluent state and then subjected to MTT assay.
The sample compound was dissolved in DMSO so as to attain a concentration of 10^-2 M and then diluted with HBSS containing 2% of Ultrocer G™ so as to attain a final concentration of 10^-4 M. To each group, which 8 wells were used for, 10 μl of MTT reagent was added immediately after 100 μl of the medium in each well was exchanged for same volume of the resulting solution of the sample compound. After being incubated in an atmosphere composed of 5% CO2 and 95% air at 37° C. for 4 hours, thus formed solution was centrifuged and then its supernatant was discarded. Subsequently, 100 μl of 100% ethanol was added to the residue so as to dissolve MTT formazan. Then, the absorbance (OD: 570 to 630) was measured by a microplate reader. This method utilizes a phenomenon in which MTT is changed to MTT formazan only by mitochondria of living cells so as to change color.
The cell damaging or cell protecting effect of the sample compound at the final concentration of 10^-4 M was expressed as cell damaging rate (%) as follows:
cell damaging rate (%)=(1-(absorbance in sample group/absorbance in control
Accordingly, the smaller value is better in the cell damaging rate.

Row | SMILES | AT: single dose toxicity level (mice) | WIS: ulcer formation inhibitory rate [1] | AHP: growth class where MIC was 100 μg/ml or more [2] | inhibition at 10 µM [3] | cytotoxicity at 4 h, 100 µM [4]
1 | CC(C)=CCC/C(C)=C/COc1ccc(C(=O)NCCN(C(C)C)C(C)C)cc1 [Example 7] | 5 | 84% | + (the number of the colony on the plate containing the sample compound was less than 90% with respect to that on the control plate) | 100% | 
2 | CCN(CC)CCNC(=O)c1ccc(OC/C=C(\C)CCC=C(C)C)c(OC)c1 [Example 30] | 5 | 84% |  | 100% | 
3 | CCN(CC)CCNC(=O)c1cc(OC)c(OC)c(OC/C=C(\C)CCC=C(C)C)c1 [Example 39] | 4 | 87% |  |  | 
4 | CCN(CC)CCNC(=O)c1ccc(OCC=C(C)C)nc1 [Example 46] | 3 | 65% |  |  | -3%
5 | CC(C)=CCOc1ccc(C(=O)NCCN(C(C)C)C(C)C)cn1 [Example 48] | 3 | 75% |  |  | -13%
6 | CC(C)Oc1ccc(C(=O)NCCN(C(C)C)C(C)C)cc1 [Example 59] |  | 89% |  | 47.5% | 39%
7 | CCCCCc1ccc(C(=O)NCCN(C(C)C)C(C)C)cc1 [Example 62] |  | 72% |  | 101% | 40%
8 | CC(C)c1ccc(C(=O)NCCN(C(C)C)C(C)C)cc1 [Example 64] |  | 82% |  | 72.7% | 39%
9 | CC(C)N(CCNC(=O)c1cccc(CN2CCCCC2)c1)C(C)C [Example 66] |  | 53% |  | 38.3% | 12%
10 | CC(C)N(CCNC(=O)c1ccc(NC(=O)C(C)(C)C)cc1)C(C)C [Example 69] |  | 95% |  | 31.5% | 35%
